Test results from patent US12495798B2, “Nicotinamide compound and herbicidal composition comprising compound” (KOREA RESEARCH INSTITUTE OF CHEMICAL TECHNOLOGY, priority 2019, dated 2025).

Legend:
Type in all cases: in vivo
sorghum [1] = test: Herbicidal activity test against upland field weeds (foliar treatment test); settings: 50 g ai/ha, scale 0-100
How it was run: (§1)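 Visual 0–100 control ratings relative to untreated plants, taken 14 (or 21) days after spraying foliage at 50 or 75 g a.i./ha. Spray solution: 50% acetone with 0.1% Tween-20; plants kept in greenhouse at 30±5 °C, 14 h light/10 h dark.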

barnyard grass [2] = test: as above; settings: 50 g ai/ha, scale 0-100
How it was run: as §1

quack grass [3] = test: as above; set-up: key to Foliar treatment herbicidal activity, quack grass: 0 (no control); 100 (complete control); settings: 50 g ai/ha, scale 0-100
How it was run: as §1

crabgrass [4] = test: as above; settings: 50 g ai/ha, scale 0-100
How it was run: as §1

fall panicum [5] = test: as above; settings: 50 g ai/ha, scale 0-100
How it was run: as §1

black nightshade [6] = test: as above; set-up: key to Foliar treatment herbicidal activity, black nightshade: 0 (no control); 100 (complete control); settings: 50 g ai/ha, scale 0-100
How it was run: as §1

indian jointvetch [7] = test: as above; set-up: key to Foliar treatment herbicidal activity, Indian jointvetch: 0 (no control); 100 (complete control); settings: 50 g ai/ha, scale 0-100
How it was run: as §1

velvetleaf [8] = test: as above; set-up: key to Foliar treatment herbicidal activity, velvet leaf: 0 (no control); 100 (complete control); settings: 50 g ai/ha; for Foliar treatment herbicidal activity, velvet leaf: scale 0-100
How it was run: as §1

cocklebur = test: as above; settings: 50 g ai/ha, scale 0-100
How it was run: as §1

bindweed [9] = test: as above; set-up: key to Foliar treatment herbicidal activity, Bindweed: 0 (no control); 100 (complete control); settings: 50 g ai/ha, scale 0-100
How it was run: as §1

sorghum [10] = test: Herbicidal activity test against upland field weeds (soil treatment test); set-up: key to Soil treatment herbicidal activity, Sorghum: 0 (no control); 100 (complete control); settings: 50 g ai/ha, scale 0 (no control) to 100 (complete control)
Experimental: (§2) Experimental Example 2: Herbicidal Activity Test Against Upland Field Weeds (Soil Treatment Test) Soil treatment was performed as follows: After filling a square plastic pot having a surface area of 350 cm^2 with sandy loam mixed with 1 g per pot (350 cm^2) of horticultural mixed fertilizer (N:P:K=11:10:11), seeds (10˜15 grains) or rootstocks (2 pieces) of 5 kinds of grassy weeds of sorghum, barnyard grass, quack grass, crabgrass, fall panicum, and 5 kinds of broadleaf weeds of black nightshade, indian jointvetch, velvetleaf, cocklebur, bindweed, which had been stored in a low temperature (6° C.), were sown. The day after sowing, test compound solutions were made by diluting with a preparation solution (including 50% acetone, 0.1% Tween-20) so that the final treatment amount of the test compounds was 50 or 75 g a.i./ha. The prepared test compound solution was used for treating soil surface by hand-spraying 14 mL per pot in a fume hood. After the treatment, it was managed under the same greenhouse conditions (average temperature 30±5° C., light/dark=14/10 hours), and after 14 days (after 21 days if necessary), the external symptoms and efficacy were investigated according to the scale of 0 (no control) to 100 (complete control). The results of Table 8 were obtained by evaluating weed control value to the untreated control by conducting visual assessment.

barnyard grass [11] = test: as above; set-up: key to Soil treatment herbicidal activity, barnyard grass: 0 (no control); 100 (complete control); settings: 50 g ai/ha, scale 0 (no control) to 100 (complete control)
Experimental: as §2

quack grass [12] = test: as above; set-up: key to Soil treatment herbicidal activity, quack grass: 0 (no control); 100 (complete control); settings: 50 g ai/ha, scale 0 (no control) to 100 (complete control)
Experimental: as §2

crabgrass [13] = test: as above; set-up: key to Soil treatment herbicidal activity, Crabgrass: 0 (no control); 100 (complete control); settings: 50 g ai/ha, scale 0 (no control) to 100 (complete control)
Experimental: as §2

fall panicum [14] = test: as above; set-up: key to Soil treatment herbicidal activity, Fall panicum: 0 (no control); 100 (complete control); settings: 50 g ai/ha, scale 0 (no control) to 100 (complete control)
Experimental: as §2

black nightshade [15] = test: as above; set-up: key to Soil treatment herbicidal activity, black nightshade: 0 (no control); 100 (complete control); settings: 50 g ai/ha, scale 0 (no control) to 100 (complete control)
Experimental: as §2

indian jointvetch [16] = test: as above; set-up: key to Soil treatment herbicidal activity, Indian jointvetch: 0 (no control); 100 (complete control); settings: 50 g ai/ha, scale 0 (no control) to 100 (complete control)
Experimental: as §2

velvetleaf [17] = test: as above; set-up: key to Soil treatment herbicidal activity, velvet leaf: 0 (no control); 100 (complete control); settings: 50 g ai/ha, scale 0 (no control) to 100 (complete control)
Experimental: as §2

bindweed [18] = test: as above; set-up: key to Soil treatment herbicidal activity, Bindweed: 0 (no control); 100 (complete control); settings: 50 g ai/ha, scale 0 (no control) to 100 (complete control)
Experimental: as §2

corn = test: Phytotoxicity test for upland field crops (foliar treatment test); set-up: key: 0 (no harm); 9 (complete withered)
How it was run: (§3)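 Post-emergence spray at 19–300 g a.i./ha (acetone/Tween-20 diluent, 100 ml/m²) onto greenhouse-grown plants. Damage rated 7 and 14 (optionally 21) days later on a 0–9 scale relative to untreated plants.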

wheat = test: as above; set-up: key: 0 (no harm); 9 (complete withered)
How it was run: as §3

[19] = 50 g ai/ha, Corn (7 days after treatment)
[20] = 50 g ai/ha, Corn (14 days after treatment)
[21] = 100 g ai/ha, Corn (7 days after treatment)
[22] = 100 g ai/ha, Corn (14 days after treatment)
[23] = 50 g ai/ha, Wheat (7 days after treatment)
[24] = 50 g ai/ha, Wheat (14 days after treatment)
[25] = 100 g ai/ha, Wheat (7 days after treatment)
[26] = 100 g ai/ha, Wheat (14 days after treatment)

In the case of `CC(OC(=O)OC1CCCCC1)N(C(=O)c1ccc(C(F)(F)F)nc1COCc1nnn(C)n1)c1nnnn1C` (stereo not shown) [Compound No. 4-11, cyclohexyl(1-(N-(1-methyl-1H-tetrazol-5-yl)-2-(((2-methyl-2H-tetrazol-5-yl)methoxy)methyl)-6-(trifluoromethyl)nicotinamido)ethyl)carbonate], the “Foliar treatment herbicidal activity, Sorghum” value (sorghum [1]) is reported as 60, the “Foliar treatment herbicidal activity, barnyard grass” value (barnyard grass [2]) is reported as 98 and the “Foliar treatment herbicidal activity, quack grass” value (quack grass [3]) is reported as 0. For the same molecule, the “Foliar treatment herbicidal activity, Crabgrass” value (crabgrass [4]) was 98, the “Foliar treatment herbicidal activity, Fall panicum” value (fall panicum [5]) was 95 and the “Foliar treatment herbicidal activity, black nightshade” value (black nightshade [6]) was 100. The “Foliar treatment herbicidal activity, Indian jointvetch” value (indian jointvetch [7]) was 98, the “Foliar treatment herbicidal activity, velvet leaf” value (velvetleaf [8]) was 100 and the “Foliar treatment herbicidal activity, Cocklebur” value (cocklebur) was 98. The “Foliar treatment herbicidal activity, Bindweed” value (bindweed [9]) was 100, the “Soil treatment herbicidal activity, Sorghum” value (sorghum [10]) was 0 and the “Soil treatment herbicidal activity, barnyard grass” value (barnyard grass [11]) was 100. The “Soil treatment herbicidal activity, quack grass” value (quack grass [12]) was 0, the “Soil treatment herbicidal activity, Crabgrass” value (crabgrass [13]) was 100 and the “Soil treatment herbicidal activity, Fall panicum” value (fall panicum [14]) was 60. The “Soil treatment herbicidal activity, black nightshade” value (black nightshade [15]) was 100, the “Soil treatment herbicidal activity, Indian jointvetch” value (indian jointvetch [16]) was 40 and the “Soil treatment herbicidal activity, velvet leaf” value (velvetleaf [17]) was 100. For the same molecule, the “Soil treatment herbicidal activity, Bindweed” value (bindweed [18]) was 0.
With `Cn1nnc(CSCc2nc(C(F)(F)F)ccc2C(=S)Nc2nnnn2C)n1` [Compound No. 2-107, N-(1-methyl-1H-tetrazol-5-yl)-2-((((2-methyl-2H-tetrazol-5-yl)methyl)thio)methyl)-6-(trifluoromethyl)pyridin-3-carbothioamide] the plant injury at 50 g/ha (sorghum [1]; Sorghum) was 70%, the pest or weed control at 50 g/ha (barnyard grass [2]; Echinochloa crus-galli) was 70% and the “Foliar treatment herbicidal activity, quack grass” value (quack grass [3]) was 0. The pest or weed control at 50 g/ha (crabgrass [4]; Digitaria sanguinalis) was 95%, the pest or weed control at 50 g/ha (fall panicum [5]; Panicum dichotomiflorum) was 60% and the “Foliar treatment herbicidal activity, black nightshade” value (black nightshade [6]) was 100. The pest or weed control at 50 g/ha (indian jointvetch [7]) was 98%, the pest or weed control at 50 g/ha (velvetleaf [8]; Abutilon theophrasti, scale 0-100, read-out: Foliar treatment herbicidal activity, velvet leaf) was 70% and the pest or weed control at 50 g/ha (cocklebur; Xanthium strumarium) was 98%. For the same molecule, the pest or weed control at 50 g/ha (bindweed [9]) was 98%, the plant injury at 50 g/ha (sorghum [10]; Sorghum) was 20% and the “Soil treatment herbicidal activity, barnyard grass” value (barnyard grass [11]) was 0. For the same molecule, the “Soil treatment herbicidal activity, quack grass” value (quack grass [12]) was 0, the “Soil treatment herbicidal activity, Crabgrass” value (crabgrass [13]) was 0 and the “Soil treatment herbicidal activity, Fall panicum” value (fall panicum [14]) was 0. For the same molecule, the pest or weed control at 50 g/ha (black nightshade [15]; Solanum nigrum) was 70%, the “Soil treatment herbicidal activity, Indian jointvetch” value (indian jointvetch [16]) was 0 and the “Soil treatment herbicidal activity, velvet leaf” value (velvetleaf [17]) was 100. The pest or weed control at 50 g/ha (bindweed [18]) was 40%, the “Foliar treatment phytotoxicity, Corn” value (corn; [19]) was 1 and the “Foliar treatment phytotoxicity, Corn” value (corn; [20]) was 0. For the same molecule, the “Foliar treatment phytotoxicity, Corn” value (corn; [21]) was 0, the “Foliar treatment phytotoxicity, Corn” value (corn; [22]) was 0 and the “Foliar treatment phytotoxicity, Wheat” value (wheat; [23]) was 3. For the same molecule, the “Foliar treatment phytotoxicity, Wheat” value (wheat; [24]) was 3, the “Foliar treatment phytotoxicity, Wheat” value (wheat; [25]) was 4 and the “Foliar treatment phytotoxicity, Wheat” value (wheat; [26]) was 3.
With `COC(=O)OC(C)N(C(=O)c1ccc(C(F)(F)F)nc1CSCc1nnn(C)n1)c1nnnn1C` (stereo not shown) [Compound No. 4-3, methyl(1-(N-(1-methyl-1H-tetrazol-5-yl)-2-((((2-methyl-2H-tetrazol-5-yl)methyl)thio)methyl)-6-(trifluoromethyl)nicotinamido)ethyl)carbonate] the “Foliar treatment herbicidal activity, Sorghum” value (sorghum [1]) was 80, the “Foliar treatment herbicidal activity, barnyard grass” value (barnyard grass [2]) was 98 and the “Foliar treatment herbicidal activity, quack grass” value (quack grass [3]) was 0. The “Foliar treatment herbicidal activity, Crabgrass” value (crabgrass [4]) was 98, the “Foliar treatment herbicidal activity, Fall panicum” value (fall panicum [5]) was 80 and the “Foliar treatment herbicidal activity, black nightshade” value (black nightshade [6]) was 100. For the same molecule, the “Foliar treatment herbicidal activity, Indian jointvetch” value (indian jointvetch [7]) was 100, the “Foliar treatment herbicidal activity, velvet leaf” value (velvetleaf [8]) was 98 and the “Foliar treatment herbicidal activity, Cocklebur” value (cocklebur) was 98. For the same molecule, the “Foliar treatment herbicidal activity, Bindweed” value (bindweed [9]) was 100, the “Soil treatment herbicidal activity, Sorghum” value (sorghum [10]) was 0 and the “Soil treatment herbicidal activity, barnyard grass” value (barnyard grass [11]) was 0. For the same molecule, the “Soil treatment herbicidal activity, quack grass” value (quack grass [12]) was 0, the “Soil treatment herbicidal activity, Crabgrass” value (crabgrass [13]) was 98 and the “Soil treatment herbicidal activity, Fall panicum” value (fall panicum [14]) was 0. For the same molecule, the “Soil treatment herbicidal activity, black nightshade” value (black nightshade [15]) was 100, the “Soil treatment herbicidal activity, Indian jointvetch” value (indian jointvetch [16]) was 0 and the “Soil treatment herbicidal activity, velvet leaf” value (velvetleaf [17]) was 50. For the same molecule, the “Soil treatment herbicidal activity, Bindweed” value (bindweed [18]) was 0, the “Foliar treatment phytotoxicity, Corn” value (corn; [19]) was 0 and the “Foliar treatment phytotoxicity, Corn” value (corn; [20]) was 0. For the same molecule, the “Foliar treatment phytotoxicity, Corn” value (corn; [21]) was 1, the “Foliar treatment phytotoxicity, Corn” value (corn; [22]) was 0 and the “Foliar treatment phytotoxicity, Wheat” value (wheat; [23]) was 0. The “Foliar treatment phytotoxicity, Wheat” value (wheat; [24]) was 0, the “Foliar treatment phytotoxicity, Wheat” value (wheat; [25]) was 0 and the “Foliar treatment phytotoxicity, Wheat” value (wheat; [26]) was 0.
